Results published in the NIST ThermoML archive (doi:10.1021/acs.jced.8b00213).

Tests used:
[1] = xn = mol fraction of the nth substance listed; conditions: 100 kPa, Liquid, x1 = 0.25; for electrical conductivity: Alternating current cell with electrodes; for speed of sound: Single path-length method; for mass density: Vibrating tube method; for viscosity: Falling or rolling sphere viscometry
[2] = refractive index (Na D-line) (dimensionless); xn = mol fraction of the nth substance listed; conditions: 100 kPa, Liquid, Standard Abbe refractometry, x1 = 0.25

CCCC[N+](CCCC)(CCCC)Cc1ccccc1.[Cl-] [benzyltributylammonium chloride] + OCC(O)CO
Conditions	electrical conductivity, [1] [S/m]	mass density, [1] [kg/m3]	refractive index, [2]	speed of sound, [1] [m/s]	viscosity, [1] [mPa·s]
283.15 K	0.003	1112.02	1.5095	1908	–
288.15 K	0.005	1108.9	1.5079	1866.4	–
293.15 K	0.007	1105.78	1.5065	1833	–
298.15 K	0.009	1102.66	1.5051	1805.3	2328.1
303.15 K	0.013	1099.54	1.5036	1782	1709.2
308.15 K	0.019	1096.41	1.5021	1761.7	1112.1
313.15 K	0.025	1093.28	1.5006	1743.5	740.9
318.15 K	0.038	1090.07	1.4992	1726.8	497.7
323.15 K	0.047	1086.95	1.4977	1711.2	346.1
328.15 K	0.065	1083.85	1.4962	1696	254.6
333.15 K	0.086	1080.72	1.4948	1681.5	185.3
338.15 K	0.109	1077.58	1.4933	1667.3	138.1
343.15 K	0.138	1074.43	1.4917	1653.9	105

CCCC[N+](CCCC)(CCCC)Cc1ccccc1.[Cl-] [benzyltributylammonium chloride] + OCCO
Conditions	electrical conductivity, [1] [S/m]	mass density, [1] [kg/m3]	refractive index, [2]	speed of sound, [1] [m/s]	viscosity, [1] [mPa·s]
283.15 K	0.03	1045.37	1.4993	1734.9	901.4
288.15 K	0.039	1042.15	1.4979	1716.3	598.4
293.15 K	0.048	1039	1.4963	1698.9	415.2
298.15 K	0.064	1035.88	1.4947	1682.2	286
303.15 K	0.081	1032.74	1.4932	1666.2	211
308.15 K	0.099	1029.6	1.4917	1650.5	155.5
313.15 K	0.122	1026.44	1.4901	1635.2	117.1
318.15 K	0.148	1023.29	1.4886	1620.1	89.9
323.15 K	0.181	1020.13	1.4871	1605.2	70.7
328.15 K	0.219	1016.97	1.4855	1590.5	55.8
333.15 K	0.262	1013.82	1.484	1576	43.6
338.15 K	0.315	1010.67	1.4825	1561.7	34.9
343.15 K	0.365	1007.53	1.4809	1547.9	28.1
